# Experiments:
# [1] = tested on: fibrotic fibroblasts (UIP patients); assay: Profibrotic gene expression (real time PCR) after 24 hrs stimulation of fibrotic fibroblasts; format: cell-based, human; conditions: for IL13Ra2 gene expression (FIG. 7B): fibroblasts, cell type not given; for CTGF gene expression (FIG. 5): fibrotic (UIP) fibroblasts; for TGFb1 gene expression (FIG. 4) / aSMA expression (FIG. 2) / increase in aSMA expression: fibrotic fibroblasts; for increase in aSMA expression: vs unstimulated
# Text: (§1) Cell lines were provided by Dr Cory Hogaboam at the University of Michigan. All of the primary fibroblast lines were isolated as previously described (Hogaboam et al. 1999 J Immunol 163(4):2193-201). Pulmonary fibroblasts were isolated from lung biopsies taken from UIP patients (n=4) and these are referred to as “fibrotic fibroblasts”. Fibroblasts were also isolated from lung tissue taken during lung tumor resection (n=5) and these samples were confirmed to be non-fibrotic by histological analysis. These non-fibrotic tissue derived fibroblasts are referred to as “non-fibrotic fibroblasts”.
# (§2) Human lung fibroblasts were plated into 24 well plates (Costar, Corning, N.Y.) at 100,000 cells/well and allowed to adhere for 8 hours. The cells were then washed with PBS and cultured overnight in serum free media (DMEM with 1-Glutamine, Pen/Strep). Cells were then stimulated for 24 hrs in the presence or absence of TGFb-1 (1 or 10 ng/mL), PDGF-AB (20 or 200 ng/mL) or CCL2 (1 or 10 ng/mL). TGFb1, PDGF-AB and CCL2 were purchased from R&D Systems. Supernatants were removed and RNA was subsequently isolated using RNeasy Plus Mini-Kits (QIAGEN, Valencia, Calif.) as per manufacturer's instructions and RNA was reverse transcribed into cDNA using TaqManâ Reverse Transcription Reagents (Applied Biosystems, Foster City, Calif.). Profibrotic gene expression was determined by real time PCR using the Taqmanâ Universal PCR Master Mix (Applied Biosystems) and pre-developed Taqmanâ Gene Expression Assays (Applied Biosystems) as per manufacture's instructions.
# (§3) Quantitative gene expression was calculated using the comparative CT method, where CT values are determined as the threshold cycle number for which gene expression is first detected. Fold changes in gene expression for the genes of interest were first normalized to the housekeeping gene 18S, giving ACT values. Fold changes in expression between fibrotic and non-fibrotic fibroblasts were calculated as: ΔCT(non-fibrotic)−ΔCT(fibrotic)=ΔΔCT, where the non-fibrotic gene expression served as the calibrator. Fold changes in gene expression due to in vitro stimulation were calculated by ΔΔCT=ΔCT(unstimulated)−ΔCT(stimulated), where the unstimulated sample served as calibrator. The calculation 2-ΔΔCT then gives a relative value for final fold change when compared to calibrator.
# non-fibrotic fibroblasts = assay: Profibrotic gene expression (real time PCR) after 24 hrs stimulation of non-fibrotic fibroblasts; format: cell-based, human
# Text: as §1, §2, §3
Substance,IL13Ra1 gene expression (FIG. 7A) ([1]; UIP fibroblasts),TGFbRII gene expression (FIG. 6B) ([1]; UIP fibroblasts),procollagen I gene expression (FIG. 3A) ([1]; UIP fibroblasts),procollagen III gene expression (FIG. 3B) ([1]; UIP fibroblasts),IL13Ra2 gene expression (FIG. 7B) [1],CTGF gene expression (FIG. 5) [1],TGFb1 gene expression (FIG. 4) [1],aSMA expression (FIG. 2) [1],increase in aSMA expression [1],aSMA expression (FIG. 2) (non-fibrotic fibroblasts),TGFbRI gene expression (FIG. 6A) ([1]; UIP fibroblasts),CTGF gene expression (FIG. 5) (non-fibrotic fibroblasts),TGFb1 gene expression (FIG. 4) (non-fibrotic fibroblasts)
"CCL2: CC-chemokine ligand 2, Monocyte Chemoattractant Protein 1; purchased from R&D Systems, used as fibroblast stimulus",upregulated,somewhat greater increase in TGFbRII,induces,induces,upregulated,induced an increase,enhances TGFb1 gene expression,induced an increase,more than 10 fold,only induced an increase in aSMA expression in fibrotic fibroblasts,–,–,–
"PDGF: platelet-derived growth factor alpha/beta; purchased from R&D Systems, used as fibroblast stimulus",upregulated,–,–,–,upregulated,induced an increase,–,modest increase,less than 10 fold,only in the fibrotic fibroblasts,–,–,–
"TGFb1: transforming growth factor beta-1; purchased from R&D Systems, used as fibroblast stimulus",upregulated,–,–,–,upregulated,induced an increase,increased TGFβ1,induced aSMA,–,induced aSMA,greater effect on TGFbRI,induced an increase,increased TGFβ1
